In article PMC2362731, “Phase I study of Carzelesin (U-80,244) given (4-weekly) by intravenous bolus schedule” (British Journal of Cancer, 1999):

Assay: Plasma pharmacokinetics of Carzelesin and metabolites by HPLC, first course
Type: in vivo, human
Experimental: Carzelesin is a cyclopropylpyrroloindole analogue which acts as a DNA-sequence-specific alkylating agent. In this phase I study, Carzelesin was given as a 4-weekly 10 min IV infusion to 51 patients with advanced solid tumours. Patients received a median of two courses (range 1–5) at one of nine dose levels: 24, 48, 96, 130, 150, 170, 210, 250 and 300 μg m^−2. According to NCI-CTC criteria, non-haematological toxicities (grade 1/2) included fever, nausea and vomiting, mucositis and anorexia, none of which was clearly dose related. The dose-limiting toxicity was haematological and consisted mainly of neutropenia and to a lesser extent thrombocytopenia. From the dose level 150 μg m^−2, the haematological toxicity (particularly thrombocytopenia) was delayed in onset, prolonged and cumulative in some patients. In several courses, double WBC nadirs occurred. The maximum tolerated dose for a single course was 300 μg m^−2. From the dose level 170 μg m^−2, the intended dose intensity could not be delivered to most patients receiving > 2 courses owing to cumulative haematological toxicity. The dose level with the best dose intensity for multiple courses was 150 μg m^−2. The pharmacokinetics of Carzelesin and its metabolites (U-76,073; U-76,074) have been established in 31 patients during the first course of treatment using a HPLC method. […] The concentration of U-76,074 (active metabolite) extended above the lower limit of quantitation (1 ng ml^−1) for short periods of time and only at the higher dose levels. There was no relationship between neutropenia and the AUC of the prodrug Carzelesin, but the presence of detectable plasma levels of the active metabolite U-76,074 was usually associated with a substantial decrease in ANC values. © 1999 Cancer Research Campaign
Carzelesin (U-80,244, Figure 1A) is a cyclopropylpyrroloindole (CPI) prodrug analogue of CC-1065. […] CPI drugs are a class of compounds with unique DNA interactive properties. These agents fit into the minor groove region of DNA, and the CPI function in the molecule mediates a covalent binding to the N3 position of adenine in A-T rich regions, thus forming DNA adducts in a sequence selective fashion (Hurley et al, 1984; Reynolds et al, 1985). Three new CPIs have now been developed. […] Bizelesin differs from the classical CPI drugs in that it contains two chloromethyl functions, which are both converted (via intramolecular rearrangements) to the CPI alkyl- ating species that interact with DNA. Consequently, this agent is capable of forming DNA interstrand cross-links (Lee et al, 1991). […] Therefore, efforts were directed to modu- late the alkylation rate by the preparation of CPI prodrugs that would require chemical or enzymatic conversion. The activation of Carzelesin is a two-step reaction with hydrolysis of the phenyl- urethane substituent to form the intermediate compound U-76,073, followed by ring closure to form the active product U-76,074 (Figure 1B). […] This higher efficacy may be related to the pharmacologic features of the compound. […] Phase I study of Carzelesin (U-80,244) given (4-weekly) by intravenous bolus schedule A Awada1, CJA Punt2, MJ Piccart1, O Van Tellingen3, L Van Manen2, J Kerger1, Y Groot4, J Wanders4, J Verweij5 and DJTh Wagener2 1Institut Jules Bordet, Bd de Waterloo 125, 1000 Brussels, Belgium; 2University Hospital, Geert Grooteplein 8, Box 9101, 6500 HB Nijmegen, The Netherlands; 3The Netherlands Cancer Institute (Antoni van Leeuwenhoek Huis), Plesmanlaan 121, 1066 CX Amsterdam, The Netherlands; 4European Organization for Research and Treatment of Cancer - New Drug Development Office, PO Box 7057, Amsterdam, The Netherlands; 5Rotterdam Cancer Institute, Groene Hilledijk 301, 3075 EA Rotterdam, The Netherlands; on behalf of the EORTC Early Clinical Studies Group and EORTC NDDO Summary Carzelesin is a cyclopropylpyrroloindole analogue which acts as a DNA-sequence-specific alkylating agent. […]

CCN(CC)c1ccc2cc(C(=O)Nc3ccc4[nH]c(C(=O)N5C[C@@H](CCl)c6c5cc(OC(=O)Nc5ccccc5)c5[nH]cc(C)c65)cc4c3)oc2c1 [Carzelesin]
time after drug administration until plasma level dropped below 1 ng ml-1 (dose level 24): ≤ 1 h
peak plasma concentration (dose level 24, also reported in Van Tellingen et al, 1998): about 10 ng ml-1
mean peak plasma level (highest dose level 300): 63 ng/mL
pharmacokinetic behaviour (dose vs plasma AUC) (in vivo): linear pharmacokinetics
